We go through four compounds from ChEMBL document CHEMBL5726080, “Substituted piperidine compounds and their use as orexin receptor modulators” (2017).

Broadly, the Ki is a measure of affinity in units of concentration, obtained from inhibition or displacement.

This experiment is described as follows: Receptor Radioligand Binding Studies: Human Embryonic Kidney 293 cells (HEK293) stably expressing rat orexin 1 receptor (Genebank accession number NM_001525) or Chinese ovary cells (CHO) stably expressing […] were grown to confluency in DMEM (Hyclone, cat #SH30022), 10% FBS, 1×Pen/Strep, 1× sodium pyruvate, 10 mM HEPES, 600 μg/mL G418 and DMEM/F12 (Gibco, Cat #11039), 10% FBS, 1×Pen/Strep, 600 μg/mL G418 media, respectively on 150 cm2 tissue culture plates, washed with 5 mM EDTA in PBS (HyClone Dulbecco's Phosphate Buffered Saline 1× with Calcium and Magnesium, Cat #SH30264.01, hereafter referred to simply as PBS) and scraped into 50 ml tubes. After centrifugation (2K×G, 5 min at 4° C.), the supernatant was aspirated and the pellets frozen and stored at −80° C. Cells were resuspended in PBS in the presence of 1 tablet of protease inhibitor cocktail (Roche, Cat. #11836145001) per 50 mL. Each cell pellet from a 15 cm plate was resuspended in 10 mL, stored on ice, and homogenized for 45 sec prior to addition to the reactions. Competition binding experiments in 96 well polypropylene plates were performed using [3H]-(1-(5-(2-fluoro-phenyl)-2-methyl-thiazol-4-yl)-1-((S)-2-(5-phenyl-(1,3,4)oxadiazol-2-ylmethyl)-pyrrolidin-1-yl)-methanone) (Moraveck Corporation, specific activity=35.3 Ci/mmol), diluted to a 10 nM concentration in PBS (4 nM final). Compounds were solubilized in 100% DMSO (Acros Organics, Cat. #61042-1000) and tested over a range of 7 concentrations (from 0.1 nM to 10 μM). The final concentration of DMSO in the reactions is equal to or less than 0.1%. Total and nonspecific binding was determined in the absence and presence of 10 μM almorexant. The total volume of each reaction is 200 μL (20 μL of diluted compounds, 80 μL of [3H]-(1-(5-(2-fluoro-phenyl)-2-methyl-thiazol-4-yl)-1-((S)-2-(5-phenyl-(1,3,4)oxadiazol-2-ylmethyl)-pyrrolidin-1-yl)-methanone) diluted in PBS and 100 μL of the cell suspension). Reactions were run for 60 min at room temperature and terminated by filtration through GF/C filter plates (PerkinElmer, Cat. #6005174) presoaked in 0.3% polyethylenimine using the cell harvester (PerkinElmer Filtermate). The plates were washed 3 times by aspirating 30 ml PBS through the plates. Plates were dried in 55° C. oven for 60 min, scintillation fluid was added, and the radioactivity was counted on a Topcount (Packard).

For `Cc1ccc(C(=O)N2CCC[C@@H](Nc3nnc(C(F)(F)F)s3)[C@@H]2C)c(-n2nccn2)n1` (relative stereo), the Ki was above 10 µM.

Regarding `COc1ccc(C(=O)N2CCC[C@@H](Nc3ccc(C(F)(F)F)cn3)[C@@H]2C)c(Cl)n1` (relative stereo), the Ki is above 10 µM.

As for `Cc1ccc(C(=O)N2CCC[C@@H](N(C)c3ccc(C(F)(F)F)cn3)[C@@H]2C)c(-n2nccn2)n1` (relative stereo), the Ki is above 10 µM.

As to `COc1ccc(C(=O)N2CCC[C@@H](Nc3ncc(C(F)(F)F)cn3)[C@@H]2C)c(Cl)n1` (relative stereo), the Ki was above 10 µM.
